For 29 compounds, mutagenic call and call results are on record in PubChem BioAssay AID1259408 (Genetic Toxicology Data Bank (GENE-TOX), 2018).

The structures appear in SMILES notation. The source made the active and inactive calls. No rule for the calls is given here.

The data set relates to GENE-TOX genotoxicity assays, various organisms and cells. In words: GENE-TOX mutagenicity studies. The settings on record: for call: Assay Type: In vivo carcinogenicity studies.
[1] abbreviates: Species/Cell Type: Bacillus subtilis (H17 vs M45), Assay Type: Rec-assay, spot test, DNA effects (bacterial DNA repair), Assay Code: REW+, Evaluation Type: Evaluation A (Pre-1980).
[2] abbreviates: Species/Cell Type: Salmonella typhimurium (one or more of the five standard strains: TA98, TA100, TA1535, TA1537, and TA1538), Assay Type: Histidine reverse gene mutation, Ames assay, Assay Code: SAL+, Evaluation Type: Evaluation A (Pre-1980).
[3] abbreviates: Species/Cell Type: Salmonella typhimurium (one or more of the five standard strains: TA98, TA100, TA1535, TA1537, and TA1538), Assay Type: Histidine reverse gene mutation, Ames assay, Assay Code: SAL+*, Activation: With metabolic activation, Evaluation Type: Evaluation A (Pre-1980).
The mark [4] stands for this setting: Species/Cell Type: Escherichia coli polA (W3119 vs P3478), Assay Type: Rec-assay, DNA effects (bacterial DNA repair), Assay Code: RE1+, Evaluation Type: Evaluation A (Pre-1980).
Setting [5] is: Species/Cell Type: Human lymphocytes, Assay Type: Sister-chromatid exchange (SCE) in vitro, Assay Code: SCL+D, Dose Response: With dose response, Evaluation Type: Evaluation B (Post-1980).
[6] abbreviates: Species/Cell Type: Human, Assay Type: Sister-chromatid exchange (SCE) in vitro, Assay Code: SC1+D, Dose Response: With dose response, Evaluation Type: Evaluation B (Post-1980).
Setting [7] is: Species/Cell Type: Neurospora crassa, Assay Type: Reverse gene mutation, Assay Code: NER+, Evaluation Type: Evaluation A (Pre-1980).
Setting [8] is: Species/Cell Type: Saccharomyces cerevisiae, Assay Type: Mitotic recombination or gene conversion, Assay Code: YEH+, Evaluation Type: Evaluation A (Pre-1980).
The mark [9] stands for this setting: Species/Cell Type: Drosophila melanogaster, Assay Type: Sex-linked recessive lethal gene mutation, Assay Code: SRLT, Evaluation Type: Evaluation A (Pre-1980).
Setting [10] is: Species/Cell Type: Nonhuman, Assay Type: Sister-chromatid exchange (SCE) in vitro, Assay Code: SC2+D, Dose Response: With dose response, Evaluation Type: Evaluation B (Post-1980).
Where [11] appears, read: Species/Cell Type: Allium cepa, Assay Type: Chromosome aberrations, Assay Code: ALC+D, Dose Response: With dose response, Evaluation Type: Evaluation A (Pre-1980).
Where [12] appears, read: Species/Cell Type: Nonhuman, Assay Code: CCGT, Evaluation Type: Evaluation A (Pre-1980).

Take `O=NN1CCCC1=O`: under setting [1], the mutagenic call was “active; positive”.

For the compound `CC(C)CN(N=O)/C(N)=N/[N+](=O)[O-]`, the mutagenic call reads like this: (Species/Cell Type: Arabidopsis species, Assay Type: Gene mutation, Assay Code: ARM+, Evaluation Type: Evaluation A (Pre-1980)) “active; positive”; under setting [2], “active; positive”.

As for `CC(=O)Nc1ccc(NC(C)=O)c2c1C(=O)c1ccccc1C2=O`, the mutagenic call under setting [3] was “active; positive”.

Turning to `OCC1CO1` (centres undefined), the mutagenic call is “active; positive” under setting [4]; “inactive; negative” (Species/Cell Type: Human diploid fibroblasts, Assay Type: Unscheduled DNA synthesis (UDS) in vitro, DNA effects, Assay Code: UDH-, Evaluation Type: Evaluation A (Pre-1980)); “active; positive” under setting [5]; “active; positive” under setting [6]; “active; positive” under setting [7]; “active; positive” under setting [8]. The mutagenic call was “active; positive” under setting [2]; “active; positive” (Species/Cell Type: Schizosaccharomyces pombe, Assay Type: Reverse gene mutation, Assay Code: YEZ+, Evaluation Type: Evaluation A (Pre-1980)); “no conclusion” (Species/Cell Type: Syrian hamster embryo (SHE) cells, Assay Type: Cell transformation, clonal assay, Assay Code: CTCT, Evaluation Type: Evaluation A (Pre-1980)).

As to `S=C(NC1CCCCC1)NC1CCCCC1`, the mutagenic call (Species/Cell Type: Fischer rat embryo (RLV/1706) cells, Assay Type: Cell transformation, viral enhanced, Assay Code: CTR+, Evaluation Type: Evaluation A (Pre-1980)) was “active; positive”.

In the case of `Cn1ccc(CO)c1CO`, the mutagenic call under setting [5] is “active; positive”.

Regarding `O=NN1CCC(O)CC1`, the mutagenic call runs as follows: (Species/Cell Type: Drosophila melanogaster, Assay Type: Aneuploidy, partial sex chromosome loss, chromosome aberrations, Assay Code: DAPT, Evaluation Type: Evaluation A (Pre-1980)) “no conclusion”; (Species/Cell Type: Drosophila melanogaster, Assay Type: Aneuploidy, whole sex chromosome loss, chromosome aberrations, Assay Code: DACT, Evaluation Type: Evaluation A (Pre-1980)) “no conclusion”; under setting [9], “no conclusion”; under setting [3], “active; positive”.

As for `O=C(O)CNc1ccc(O)cc1`, for the setting “Species/Cell Type: Allium cepa, Assay Type: Chromosome aberrations, Assay Code: ALC+, Evaluation Type: Evaluation A (Pre-1980)”, the mutagenic call was “active; positive”.

On to `NOS(=O)(=O)O`, for which the mutagenic call under setting [4] was “active; positive”.

Regarding `O=Nn1c2ccccc2c2ccccc21`, where the note is “Species/Cell Type: Rat primary hepatocytes, Assay Type: Unscheduled DNA synthesis (UDS) in vitro, DNA effects, Assay Code: UDP-, Evaluation Type: Evaluation A (Pre-1980)”, the mutagenic call is “inactive; negative”.

Regarding `COP(=S)(OC)Oc1cc(Cl)c(Br)cc1Cl`, under setting [9], the mutagenic call is “no conclusion”.

Regarding `CC1C(=O)OC2CC[N+]3([O-])CC=C(COC(=O)C(C)(O)C1(C)O)C23` (centres undefined), the mutagenic call (Species/Cell Type: Drosophila melanogaster, Assay Type: Sex-linked recessive lethal gene mutation, Assay Code: SRL+, Evaluation Type: Evaluation A (Pre-1980)) was “active; positive”.

For the compound `Nc1ccc(O)c(N)c1`, the mutagenic call (Species/Cell Type: Allium cepa, Assay Type: Chromosome aberrations, Assay Code: ALC-, Evaluation Type: Evaluation A (Pre-1980)) was “inactive; negative”.

In the case of `NC(=O)c1cccc(N)c1`, the mutagenic call is “no conclusion” (Species/Cell Type: Chinese hamster ovary (CHO) cells, Assay Type: Forward gene mutation at the HPRT locus, Assay Code: CHOT, Evaluation Type: Evaluation B (Post-1980)); “active; positive” under setting [6]; “active; positive” under setting [10].

`C=CCOc1nc2c(c(=O)n(C)c(=O)n2C)n1C`: under setting [11], the mutagenic call was “active; positive”.

Regarding `CCCO`, the mutagenic call (Species/Cell Type: Nonhuman, Assay Type: Sister-chromatid exchange (SCE) in vitro, Assay Code: SC2-, Evaluation Type: Evaluation A (Pre-1980)) is “inactive; negative”.

As for `CCNCC`, for the setting “Species/Cell Type: Saccharomyces cerevisiae, Assay Type: Forward gene mutation, Assay Code: YEF-*, Activation: With metabolic activation, Evaluation Type: Evaluation A (Pre-1980)”, the mutagenic call was “inactive; negative”.

As to `BrC(Br)C(Br)Br`, the mutagenic call under setting [4] is “active; positive”.

In the case of `COc1ccc(/C=N/NC(=O)COc2ccc(Br)cc2CN2CCOCC2)cc1`, for the setting “Species/Cell Type: Saccharomyces cerevisiae, Assay Type: Reverse gene mutation, Assay Code: YERT, Evaluation Type: Evaluation A (Pre-1980)”, the mutagenic call is on record as “no conclusion”.

In the case of `C=CCn1c(=O)n(C)c2c(=O)n(C)c(=O)n(C)c21`, the mutagenic call under setting [11] was “active; positive”.

With `[Cr]`, the call under setting [12] was “no conclusion”.

Turning to `CC1=NN(c2ccc([N+](=O)[O-])cc2)C(=O)C1[N+](=O)[O-]` (centres undefined), the mutagenic call reads like this: under setting [4], “active; positive”; under setting [2], “active; positive”.

For the compound `Oc1ccc2c(c1)cc1ccc3cccc4ccc2c1c34`, the mutagenic call (Species/Cell Type: Chinese hamster lung (V79) cells, Assay Type: Forward gene mutation at the HPRT or ouabain locus, Assay Code: V79-*, Activation: With metabolic activation, Evaluation Type: Evaluation A (Pre-1980)) is “inactive; negative”; the mutagenic call (Species/Cell Type: Salmonella typhimurium (one or more of the five standard strains: TA98, TA100, TA1535, TA1537, and TA1538), Assay Type: Histidine reverse gene mutation, Ames assay, Assay Code: SALT, Evaluation Type: Evaluation A (Pre-1980)) is “no conclusion”. For the same compound, the call under setting [12] is “no conclusion”.

On to `CCCCN(CCCO)N=O`, for which, under setting [2], the mutagenic call was “active; positive”.

In the case of `CCCN(CCCC(=O)O)N=O`, the mutagenic call under setting [2] is “active; positive”.

Turning to `NCCC[C@H](N)C(=O)O`, the mutagenic call (Species/Cell Type: Human, Sex: Male, Assay Type: Sperm morphology, Assay Code: SPH-, Evaluation Type: Evaluation A (Pre-1980)) is “inactive; negative”.

Turning to `NC(=O)/C(=C\c1ccc([N+](=O)[O-])o1)c1ccco1`, the mutagenic call is “active; positive” under setting [1]; “active; positive” (Species/Cell Type: Chinese hamster lung (V79) cells, Assay Type: Forward gene mutation at the HPRT or ouabain locus, Assay Code: V79+, Evaluation Type: Evaluation A (Pre-1980)); “no conclusion” under setting [9]; “active; positive” (Species/Cell Type: Escherichia coli WP2 UVRA, Assay Type: Tryptophan reverse gene mutation, Assay Code: WPU+D, Dose Response: With dose response, Evaluation Type: Evaluation A (Pre-1980)); “no conclusion” (Species/Cell Type: Human diploid fibroblasts, Assay Type: Unscheduled DNA synthesis (UDS) in vitro, DNA effects, Assay Code: UDHT, Evaluation Type: Evaluation A (Pre-1980)); “active; positive” under setting [6]. In addition, the mutagenic call runs as follows: (Species/Cell Type: Mammalian polychromatic erythrocytes, Assay Type: Micronucleus test, chromosome aberrations, Assay Code: MNTT, Evaluation Type: Evaluation A (Pre-1980)) “no conclusion”; (Species/Cell Type: Mouse lymphoma (L5178Y) cells, Assay Type: Forward gene mutation at the thymidine kinase (TK) locus, chromosome aberrations, Assay Code: L51+, Evaluation Type: Evaluation A (Pre-1980)) “active; positive”; (Species/Cell Type: Mouse, Sex: Male, Assay Type: Sperm morphology, Assay Code: SPI-, Evaluation Type: Evaluation A (Pre-1980)) “inactive; negative”; (Species/Cell Type: Neurospora crassa, Assay Type: Forward gene mutation, Assay Code: NEF+, Evaluation Type: Evaluation A (Pre-1980)) “active; positive”; under setting [7], “active; positive”; under setting [10], “active; positive”. Moreover, the mutagenic call is, setting by setting: (Species/Cell Type: Rodents, Sex: Male, Assay Type: Dominant lethal test, Assay Code: DLT-, Evaluation Type: Evaluation A (Pre-1980)) “inactive; negative”; (Species/Cell Type: Saccharomyces cerevisiae, Assay Type: Mitotic recombination or gene conversion, Assay Code: YEC+, Evaluation Type: Evaluation A (Pre-1980)) “active; positive”; under setting [8], “active; positive”; (Species/Cell Type: Saccharomyces cerevisiae, Assay Type: Reverse gene mutation, Assay Code: YER+, Evaluation Type: Evaluation A (Pre-1980)) “active; positive”; under setting [2], “active; positive”; (Species/Cell Type: Syrian hamster embryo (SHE) cells, Assay Type: Cell transformation, clonal assay, Assay Code: CTC+, Evaluation Type: Evaluation A (Pre-1980)) “active; positive”. Also, under “Species/Cell Type: Nonhuman, Assay Code: CCG+, Evaluation Type: Evaluation A (Pre-1980)”, the call is “active; positive”.

Take `[C-]#[N+]C(=C\c1ccc(O)cc1)/C(=C/c1ccc(O)cc1)[N+]#[C-]`: the mutagenic call (Species/Cell Type: Bacillus subtilis (H17 vs M45), Assay Type: Rec-assay, spot test, DNA effects (bacterial DNA repair), Assay Code: REWT, Evaluation Type: Evaluation A (Pre-1980)) was “no conclusion”.

Take `CC1CN(N=O)CC(C)N1N=O` (centres undefined): the mutagenic call under setting [3] is “active; positive”.
